Measured values as given in patent publication US12168012B2, “NLRP3 inflammasome inhibitors” (Novartis AG, priority 2018, dated 2024).

What was measured:
Format in all cases: cell-based
THP-1 cells = test: Readout of pyroptosis (PrestoBlue cell viability reagent) in the IL-1β secretion assay; details: Homo sapiens; PMA-differentiated THP-1 cells, nigericin; values marked * in the IL-1β column
Protocol: Monocytic THP-1 cells (ATCC: TIB-202) were maintained according to providers' instructions in RPMI media (RPMI/Hepes+10% fetal bovine serum+Sodium Pyruvate+0.05 mM Beta-mercaptoethanol (1000× stock)+Pen-Strep). Cells were differentiated in bulk with 0.5 μM phorbol 12-myristate 13-acetate (PMA; Sigma #P8139) for 3 hours, media was exchanged, and cells were plated at 50,000 cells per well in a 384-well flat-bottom cell culture plates (Greiner, #781986), and allowed to differentiate overnight. Compound in a 1:3.16 serial dilution series in DMSO was added 1:100 to the cells and incubated for 1 hour. The NLRP3 inflammasome was activated with the addition of 15 μM (final concentration) Nigericin (Enzo Life Sciences, #BML-CA421-0005), and cells were incubated for 3 hours. 10 μL supernatant was removed, and IL-1p levels were monitored using an HTRF assay (CisBio, #62IL1PEC) according to manufacturers' instructions. Viability and pyroptosis was monitored with the addition of PrestoBlue cell viability reagent (Life Technologies, #A13261) directly to the cell culture plate.

[1] = system: NF-kB-dependent TNF-α secretion; test: TNF-α secretion assay (counterscreen); details: Homo sapiens; THP-1 cells, Pam3CSK4-stimulated, 3 hours, HTRF
How it was run: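 Undifferentiated THP-1 cells, rested overnight, given compound then stimulated with 1 μg/mL LPS or 100 ng/mL Pam3CSK4 for 3 hours. Supernatant TNF-α measured by HTRF; IC50 from four-parameter logistic fit of % inhibition versus concentration, with viability monitored.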

NLRP3 inflammasome = test: IL-1β secretion assay; details: Homo sapiens, THP-1, 3 h, PMA-differentiated THP-1 cells, 15 μM nigericin, HTRF
How it was run: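 PMA-differentiated THP-1 cells stimulated with nigericin to trigger NLRP3-dependent IL-1β secretion, measured by HTRF after 3 h. Viability/pyroptosis monitored with PrestoBlue. IC50 from logistic fit of % inhibition vs concentration with Hill coefficient.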

Row | Compound | IC50 (THP-1 cells) | IC50 [1] | IC50 (NLRP3 inflammasome)
1 | CC(C)c1nn(CC(=O)Nc2nncs2)c(=O)c2cc3sc(Cl)cc3n12 [Ex 117, 2-(2-Chloro-5-isopropyl-8-oxothieno[2′,3′:4,5]pyrrolo[1,2-d][1,2,4]triazin-7(8H)-yl)-N-(1,3,4-thiadiazol-2-yl)acetamide] | 6000 nM |  | 
2 | CC(C)c1nn(CC(=O)N[C@H]2CCC[C@@H](NC(=O)OC(C)(C)C)C2)c(=O)c2cc3sc(Cl)cc3n12 [Ex 56, tert-Butyl ((1R,3S)-3-(2-(2-chloro-5-isopropyl-8-oxothieno[2′,3′:4,5]pyrrolo[1,2-d][1,2,4]triazin-7(8H)-yl)acetamido)cyclohexyl)carbamate] | > 330 nM | > 100000 nM | 
3 | CC(C)(O)c1nn(CC(=O)Nc2cccc(NS(C)(=O)=O)c2)c(=O)c2cc3sc(Cl)cc3n12 [Ex 116, 2-(2-Chloro-5-(2-hydroxypropan-2-yl)-8-oxothieno[2′,3′:4,5]pyrrolo[1,2-d][1,2,4]triazin-7(8H)-yl)-N-(3-(methylsulfonamido)phenyl)acetamide] | 400 nM |  | 
4 | CC(C)c1nn(CC(=O)N[C@H]2CC[C@H](C(=O)O)CC2)c(=O)c2cc3sc(Cl)cc3n12 [Ex 53, (1r,4r)-4-(2-(2-Chloro-5-isopropyl-8-oxothieno[2′,3′:4,5]pyrrolo[1,2-d][1,2,4]triazin-7(8H)-yl)acetamido)cyclohexane-1-carboxylic acid] |  | > 100000 nM | 34.2 nM
5 | CC(C)c1nn(CC(=O)NC23CCC(O)(CC2)CC3)c(=O)c2cc3sc(Cl)cc3n12 [Ex 76, 2-(2-Chloro-5-isopropyl-8-oxothieno[2′,3′:4,5]pyrrolo[1,2-d][1,2,4]triazin-7(8H)-yl)-N-(4-hydroxybicyclo[2.2.2]octan-1-yl)acetamide] |  | > 100000 nM | 45.1 nM
6 | CC(C)c1nn(CC(=O)Nc2ccc(F)cc2F)c(=O)c2cc3sc(Cl)cc3n12 [Ex 58, 2-(2-Chloro-5-isopropyl-8-oxothieno[2′,3′:4,5]pyrrolo[1,2-d][1,2,4]triazin-7(8H)-yl)-N-(2,4-difluorophenyl)acetamide] |  | > 100000 nM | 176 nM
7 | CC(C)c1nn(CC(=O)NCC(C)(C)CO)c(=O)c2cc3sc(Cl)cc3n12 [Ex 20, 2-(2-Chloro-5-isopropyl-8-oxothieno[2′,3′:4,5]pyrrolo[1,2-d][1,2,4]triazin-7(8H)-yl)-N-(3-hydroxy-2,2-dimethylpropyl)acetamide] |  | > 100000 nM | 59.8 nM
